ChEMBL document CHEMBL1201862, “PubChem BioAssay data set” (2004)
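Assay format: 96-well plates, 48-hour exposure. GI50 marks 50% less growth.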 Calls of active or inactive are those of the source. Rule as the data show it: active = GI50 up to about 1.1 µM and inactive = higher.

Legend:
Experiment in all cases: DTP human tumour cell line panel, 48 h
HOP-92 = tested on: HOP-92
OVCAR-3 = tested on: OVCAR-3
SNB-78 = tested on: SNB-78
SF-268 = tested on: SF-268
OVCAR-4 = tested on: OVCAR-4
KM12 = tested on: KM12
UACC-257 = tested on: UACC-257
SW-620 = tested on: SW-620
HT-29 = tested on: HT-29
M14 = tested on: M14
MOLT-4 = tested on: MOLT-4
COLO 205 = tested on: COLO 205
RXF 393 = tested on: RXF 393
A498 = tested on: A498
SK-OV-3 = tested on: SK-OV-3

COc1ccc(/C(=N\NC(=O)C(N)=O)C(c2ccc(OC)cc2)C2(O)C(=O)Nc3c(Cl)cccc32)cc1 (configuration not stated) was tested, and the GI50 (HOP-92) was > 100 µM (inactive), the GI50 (OVCAR-3) was > 100 µM (inactive) and the GI50 (SNB-78) was > 100 µM (inactive). For the same molecule, the GI50 (SF-268) was > 100 µM (inactive), the GI50 (OVCAR-4) was > 100 µM (inactive) and the GI50 (KM12) was > 100 µM (inactive). For the same molecule, the GI50 (UACC-257) was > 100 µM (inactive), the GI50 (SW-620) was > 100 µM (inactive) and the GI50 (HT-29) was > 100 µM (inactive). For the same molecule, the GI50 (M14) was > 100 µM (inactive), the GI50 (MOLT-4) was 82.4 µM (inactive) and the GI50 (COLO 205) was > 100 µM (inactive). For the same molecule, the GI50 (RXF 393) was > 100 µM (inactive).

For COc1cc2c(c(O)c1C)C(=O)CC(c1ccccc1)O2 (configuration not stated), the GI50 (HOP-92) was 13.4 µM (inactive), the GI50 (OVCAR-3) was 48.1 µM (inactive) and the GI50 (SNB-78) was 55.7 µM (inactive). The GI50 (SF-268) was > 100 µM (inactive), the GI50 (OVCAR-4) was > 10 µM (inactive) and the GI50 (KM12) was 62.8 µM (inactive). For the same molecule, the GI50 (UACC-257) was 38.5 µM (inactive), the GI50 (SW-620) was > 10 µM (inactive) and the GI50 (HT-29) was > 10 µM (inactive). The GI50 (A498) was 64.1 µM (inactive), the GI50 (SK-OV-3) was 36.2 µM (inactive) and the GI50 (M14) was > 10 µM (inactive). The GI50 (MOLT-4) was 32.8 µM (inactive).

In the case of CN(Cc1ccccc1)C1(N(C)Cc2ccccc2)CC1, the GI50 (HOP-92) is reported as > 100 µM (inactive), the GI50 (OVCAR-3) is reported as > 100 µM (inactive) and the GI50 (SNB-78) is reported as > 100 µM (inactive). For the same molecule, the GI50 (SF-268) was > 100 µM (inactive), the GI50 (OVCAR-4) was > 100 µM (inactive) and the GI50 (KM12) was > 100 µM (inactive). The GI50 (UACC-257) was > 100 µM (inactive), the GI50 (SW-620) was > 100 µM (inactive) and the GI50 (HT-29) was > 100 µM (inactive). For the same molecule, the GI50 (A498) was > 100 µM (inactive), the GI50 (SK-OV-3) was > 100 µM (inactive) and the GI50 (M14) was > 100 µM (inactive). The GI50 (MOLT-4) was > 100 µM (inactive), the GI50 (COLO 205) was > 100 µM (inactive) and the GI50 (RXF 393) was > 100 µM (inactive).

CC(C)(c1ccc(Oc2ccc(C#N)c(C#N)c2)cc1)c1ccc(Oc2ccc(C#N)c(C#N)c2)cc1 was tested, and the GI50 (HOP-92) was > 10 µM (inactive), the GI50 (OVCAR-3) was > 10 µM (inactive) and the GI50 (SNB-78) was > 10 µM (inactive). The GI50 (SF-268) was > 10 µM (inactive), the GI50 (OVCAR-4) was > 10 µM (inactive) and the GI50 (KM12) was > 10 µM (inactive). For the same molecule, the GI50 (UACC-257) was > 10 µM (inactive), the GI50 (SW-620) was > 100 µM (inactive) and the GI50 (HT-29) was > 10 µM (inactive). The GI50 (A498) was > 10 µM (inactive), the GI50 (SK-OV-3) was > 10 µM (inactive) and the GI50 (M14) was > 10 µM (inactive). For the same molecule, the GI50 (MOLT-4) was > 10 µM (inactive), the GI50 (COLO 205) was > 10 µM (inactive) and the GI50 (RXF 393) was > 10 µM (inactive).

For C/C(=C(/C)c1cc[n+](C)cc1)c1cc[n+](C)cc1, the GI50 (HOP-92) was > 75 µM (inactive), the GI50 (OVCAR-3) was 9.12 µM (inactive) and the GI50 (SNB-78) was > 75 µM (inactive). For the same molecule, the GI50 (SF-268) was > 75 µM (inactive), the GI50 (OVCAR-4) was 69.8 µM (inactive) and the GI50 (KM12) was > 75 µM (inactive). The GI50 (UACC-257) was > 75 µM (inactive), the GI50 (HT-29) was > 75 µM (inactive) and the GI50 (A498) was > 75 µM (inactive). For the same molecule, the GI50 (SK-OV-3) was > 75 µM (inactive), the GI50 (M14) was > 75 µM (inactive) and the GI50 (MOLT-4) was > 75 µM (inactive). The GI50 (COLO 205) was 27.2 µM (inactive) and the GI50 (RXF 393) was > 75 µM (inactive).

COc1cc(Nc2nc3ccccc3nc2-c2cccs2)cc(OC)c1OC was tested, and the GI50 (HOP-92) was 13.9 µM (inactive), the GI50 (OVCAR-3) was 43.8 µM (inactive) and the GI50 (SNB-78) was 90.6 µM (inactive). For the same molecule, the GI50 (SF-268) was 25.8 µM (inactive), the GI50 (UACC-257) was 28.8 µM (inactive) and the GI50 (SW-620) was 50.4 µM (inactive). The GI50 (HT-29) was 41.7 µM (inactive), the GI50 (SK-OV-3) was 40.2 µM (inactive) and the GI50 (MOLT-4) was 12.9 µM (inactive). The GI50 (COLO 205) was > 10 µM (inactive) and the GI50 (RXF 393) was 16.6 µM (inactive).

For CC1=Nc2ccccc2SC(c2c(Cl)cccc2Cl)C1 (configuration not stated), the GI50 (HOP-92) was 1.82 µM (inactive), the GI50 (OVCAR-3) was 0.281 µM (active) and the GI50 (SNB-78) was 3.31 µM (inactive). The GI50 (SF-268) was 1.01 µM (active), the GI50 (OVCAR-4) was 1.98 µM (inactive) and the GI50 (KM12) was 0.828 µM (active). The GI50 (UACC-257) was 1.57 µM (inactive), the GI50 (SW-620) was 0.43 µM (active) and the GI50 (HT-29) was 0.397 µM (active). For the same molecule, the GI50 (A498) was 2.12 µM (inactive), the GI50 (SK-OV-3) was 2.45 µM (inactive) and the GI50 (M14) was 1.52 µM (inactive). For the same molecule, the GI50 (MOLT-4) was 0.49 µM (active), the GI50 (COLO 205) was 1.58 µM (inactive) and the GI50 (RXF 393) was 1.34 µM (inactive).

COc1ccccc1-n1c(C)nc2ccccc2c1=O was tested, and the GI50 (HOP-92) was > 100 µM (inactive), the GI50 (OVCAR-3) was > 100 µM (inactive) and the GI50 (SNB-78) was > 100 µM (inactive). The GI50 (SF-268) was > 100 µM (inactive), the GI50 (OVCAR-4) was > 100 µM (inactive) and the GI50 (KM12) was > 100 µM (inactive). For the same molecule, the GI50 (UACC-257) was > 100 µM (inactive), the GI50 (SW-620) was > 100 µM (inactive) and the GI50 (HT-29) was > 100 µM (inactive). For the same molecule, the GI50 (A498) was > 100 µM (inactive), the GI50 (SK-OV-3) was > 100 µM (inactive) and the GI50 (M14) was > 100 µM (inactive). For the same molecule, the GI50 (MOLT-4) was > 100 µM (inactive), the GI50 (COLO 205) was > 100 µM (inactive) and the GI50 (RXF 393) was > 100 µM (inactive).

In the case of CC(=O)Oc1cc(OC(C)=O)c(OC(C)=O)c2c1CC1C(=O)C3(CCc4ccccc43)C(=O)C1C2 (configuration not stated), the GI50 (HOP-92) is reported as > 100 µM (inactive), the GI50 (OVCAR-3) is reported as 4.82 µM (inactive) and the GI50 (SNB-78) is reported as 23.1 µM (inactive). For the same molecule, the GI50 (SF-268) was > 10 µM (inactive), the GI50 (OVCAR-4) was 11.7 µM (inactive) and the GI50 (SW-620) was 17.9 µM (inactive). The GI50 (HT-29) was 20.7 µM (inactive), the GI50 (SK-OV-3) was 32.1 µM (inactive) and the GI50 (M14) was > 100 µM (inactive). The GI50 (COLO 205) was 19.6 µM (inactive) and the GI50 (RXF 393) was 15 µM (inactive).

In the case of CC/C(CC(=O)CCC(=O)Nc1ccccc1[N+](=O)[O-])=N/NC(=O)C[n+]1ccccc1, the GI50 (HOP-92) is reported as > 100 µM (inactive), the GI50 (OVCAR-3) is reported as > 100 µM (inactive) and the GI50 (SNB-78) is reported as > 100 µM (inactive). The GI50 (SF-268) was > 100 µM (inactive), the GI50 (OVCAR-4) was > 100 µM (inactive) and the GI50 (KM12) was > 100 µM (inactive). The GI50 (UACC-257) was > 100 µM (inactive), the GI50 (SW-620) was > 100 µM (inactive) and the GI50 (HT-29) was > 100 µM (inactive). For the same molecule, the GI50 (A498) was > 100 µM (inactive), the GI50 (SK-OV-3) was > 100 µM (inactive) and the GI50 (M14) was > 100 µM (inactive). The GI50 (MOLT-4) was > 100 µM (inactive), the GI50 (COLO 205) was > 100 µM (inactive) and the GI50 (RXF 393) was > 100 µM (inactive).
